Assay results: paper PMC4102529, “FRET Based Quantification and Screening Technology Platform for the Interactions of Leukocyte Function-Associated Antigen-1 (LFA-1) with InterCellular Adhesion Molecule-1 (ICAM-1)” (PLoS ONE, 2014)

Columns and labels:
[1] = tested on: I-domain of LFA-1 (CD11a I-domain); settings: ref [58]; cited from earlier work
Excerpt: In our study, we identified three LFA-1 derived peptides, CD11a237–261, […], and CD11a456–465, to compare their inhibition efficiency via our steady-state FRET based competitive screening assay. Moreover, the inhibition efficiency of lovastatin, a well-known potent inhibitor of the ICAM-1 interaction, was also obtained to further validate the FRET screening platform. ...

[2] = tested on: interaction of ICAM-1 with LFA-1; design: method as in PMID 12368073; settings: ref [34]; cited from earlier work
Excerpt: Based on these roles in several disease pathologies, the LFA-1/ICAM-1 interaction can serve as a potential therapeutic target in the development of new therapies for the autoimmune diseases, metastasis cancer, and viral diseases. […] Furthermore, several […] therapies were developed for the treatment of autoimmune diseases. However, […] therapies have serious side effects in humans due to their large molecular structure an ...

[3] = tested on: LFA-1/D1-D2-Fc (ICAM-1) interaction; assay: Steady-state FRET based competitive screening assay for inhibition of the LFA-1/D1-D2-Fc interaction; type: binding, human; settings: for inhibition efficiency: 100 nM Alexa Fluor 488-LFA-1 + 100 nM Alexa Fluor 555-D1-D2-Fc, PBS, pH 7.4, 1 mM EGTA, 2 mM Mg^2+, 30 min, dark, calculated from FRET efficiency, Eq. (1); for FRET efficiency: mean ± rms, control without inhibitor 53.51 ± 0.10%, A/D = 2.12, excitation 470 nm, Eq. (3); for rank of inhibition efficiency among the three LFA-1 derived peptides: 0.02, 0.2, 2 and 20 µM
Description: But with increasing concentration of the lovastatin, the FRET efficiency decreased to 5.3% for 200 µM of lovastatin. The inhibition efficiency (%) was calculated for each concentration of lovastatin using the relation,
[drawing 1] (1) where Fcontrol is the FRET efficiency of the Alexa Fluor 488-LFA-1 and Alexa Fluor 555-D1-D2-Fc alone and Fx is that of the FRET mixture when incubated with inhibitors. The inhibition efficiency of lovastatin was calculated to be 69.48±0.77%, 73.84±0.56%, 84.98±0.10%, and 90.03±0.06% for 0.2, 2, 20, and 200 µM respectively [Fig. 7(a)].
To characterize and compare the inhibitory activity of the selected peptides, CD11a237–261, CD11a441–465, and CD11a456–465, the FRET mixture was incubated with several concentrations (0.02, 0.2, 2, and 20 µM) of the peptides (following the procedure described in the “Materials and Methods” section) and the FRET efficiency (Tables S3, S4, S5) and the inhibition efficiency [Fig. 7(b)] were calculated for each case. The inhibition efficiency for CD11a237–261 at 0.02, 0.2, 2, and 20 µM are 40.81±0.31%, 47.05±0.56%, 53.16±0.70%, 65.13±0.81%, respectively; the corresponding values for CD11a441–465, at the same concentrations, are 20.89±0.72%, 37.08±0.29%, 46.93±0.89%, 62.01±0.15%, respectively; and for CD11a456–465, the corresponding values are 12.17±0.91%, 20.26±0.69%, 36.46±0.42%, 51.41±0.33%. From these values, we note that the difference in inhibition efficiency of these three peptides is much more significant at low peptide concentration (on the order of 0.02 to 0.2 µM), the cause of which requires further investigation. Nevertheless, in all cases, the inhibition efficiency of CD11a237–261 is highest and CD11a456–465 the lowest, which are in good agreement with those reported in the literature.
The FRET efficiency can be adjusted by changing the fluorophore to protein ratio; the optimal acceptor to donor fluorophore (A/D) ratio was obtained following the procedure reported in the literature with slight modification. In short, A/D is defined as the number of the acceptor fluorophore molecules to donor molecule in the interacting protein complex. Several concentration ratios of Alexa Fluor 488-LFA-1 and Alexa Fluor 555-D1-D2-Fc were incubated for 30 minutes at room temperature and the FRET emission spectra were obtained via a fluorescence multiplate reader, Tecan Infinite M200 pro (Männedorf, Switzerland). For each concentration ratio, the concentration of the acceptor conjugate, Alexa Fluor 555-D1-D2-Fc, was kept constant. The optimal A/D ratio for the FRET pair was selected by comparing the FRET efficiencies for different A/D ratios. […] Due to these facts, we have used equation (3), [65] given below for the FRET efficiency (E) calculation which incorporates the cross-talk corrections for each of the A/D ratios. [drawing 3] (3) here, (λ470, λ) denotes the numerical integral of the emission spectrum between 560 and 610 nm when excited with 470 nm. fDA, fA, and fD represent the emission spectra of the FRET mixture, acceptor alone, and donor alone, respectively. The absorbance values of donor and acceptor, at the excitation maximum of Alexa Fluor 488 of 470 nm, is represented by A^D and A^A, respectively. […] In this article, the calculation was implemented assuming that there […] in the overlap integral with different F/P and the (associated) different A/D ratios. The optimal A/D ratio was used for the development of the FRET based screening platform for the assessment of peptides and small molecules for their inhibition efficiency of the LFA-1 and ICAM-1 interactions.
The donor, Alexa Fluor 488-LFA-1, with a concentration corresponding to the […] A/D ratio was mixed with each kind of LFA-1 derived peptides (CD11a237–261, CD11a441–465, and CD11a456–465) in PBS, pH 7.4, 1 mM EGTA and 2 mM Mg^2+. […]

[4] = tested on: human immunodeficiency virus type 1; settings: ref [59]; cited from earlier work

For `CC[C@H](C)C(=O)O[C@H]1C[C@@H](C)C=C2C=C[C@H](C)[C@H](CC[C@@H]3C[C@@H](O)CC(=O)O3)[C@H]21` [lovastatin, reference compound], the “binding to the I-domain of LFA-1” value [1] is listed as “binds with the highly conserved I-domain of LFA-1”, the “inhibition of the interaction of ICAM-1 with LFA-1” value [2] is listed as “specifically inhibits the interaction of ICAM-1 with LFA-1” and the inhibition efficiency ([3]; 0.2 µM inhibitor) is listed as 69.48±0.77%. It also gave an FRET efficiency ([3]; 0.2 µM inhibitor) of 16.33 ± 0.76%, an inhibition efficiency ([3]; 2 µM inhibitor) of 73.84±0.56% and an FRET efficiency ([3]; 2 µM inhibitor) of 14.00 ± 0.57%. It also gave an inhibition efficiency ([3]; 20 µM inhibitor) of 84.98±0.10%, an FRET efficiency ([3]; 20 µM inhibitor) of 8.03 ± 0.01% and an inhibition efficiency ([3]; 200 µM inhibitor) of 90.03±0.06%. For the same compound, the FRET efficiency ([3]; 200 µM inhibitor) was 5.3%, the FRET efficiency ([3]; 200 µM inhibitor, listed as Lovastatin) was 5.33 ± 0.01% and the “effect on HIV-1 replication” value [4] was “reduction of human immunodeficiency virus type 1 replication”.
Work on “APLFY- GEQRG [CD11a456–465, LFA-1α derived peptide, purchased from GenScript]” yielded an inhibition efficiency ([3]; 0.02 µM inhibitor) of 12.17±0.91%, an FRET efficiency ([3]; 0.02 µM inhibitor) of 47.00 ± 0.81% and an inhibition efficiency ([3]; 0.2 µM inhibitor) of 20.26±0.69%. It also gave an FRET efficiency ([3]; 0.2 µM inhibitor) of 42.67 ± 0.57%, an inhibition efficiency ([3]; 2 µM inhibitor) of 36.46±0.42% and an FRET efficiency ([3]; 2 µM inhibitor) of 34.00 ± 0.08%. The inhibition efficiency ([3]; 20 µM inhibitor) was 51.41±0.33%, the FRET efficiency ([3]; 20 µM inhibitor) was 26.00 ± 0.58% and the “rank of inhibition efficiency among the three LFA-1 derived peptides” value [3] was “the lowest”.
With “GVDVDQDGETEL-IGAPLFYGEQRG [CD11a441–465, LFA-1α derived peptide, purchased from GenScript]” the inhibition efficiency ([3]; 0.02 µM inhibitor) was 20.89±0.72%, the FRET efficiency ([3]; 0.02 µM inhibitor) was 42.33 ± 0.23% and the inhibition efficiency ([3]; 0.2 µM inhibitor) was 37.08±0.29%. It also gave an FRET efficiency ([3]; 0.2 µM inhibitor) of 33.67 ± 0.51%, an inhibition efficiency ([3]; 2 µM inhibitor) of 46.93±0.89% and an FRET efficiency ([3]; 2 µM inhibitor) of 28.40 ± 0.02%. For the same compound, the inhibition efficiency ([3]; 20 µM inhibitor) was 62.01±0.15% and the FRET efficiency ([3]; 20 µM inhibitor) was 20.33 ± 0.53%.
In the case of “ITDGEATDSGNIDAAKDIIR-YIIGI [CD11a237–261, LFA-1α derived peptide, purchased from GenScript]”, the inhibition efficiency ([3]; 0.02 µM inhibitor) is reported as 40.81±0.31%, the FRET efficiency ([3]; 0.02 µM inhibitor) is reported as 31.67 ± 0.06% and the inhibition efficiency ([3]; 0.2 µM inhibitor) is reported as 47.05±0.56%. The FRET efficiency ([3]; 0.2 µM inhibitor) was 28.33 ± 0.51%, the inhibition efficiency ([3]; 2 µM inhibitor) was 53.16±0.70% and the FRET efficiency ([3]; 2 µM inhibitor) was 25.06 ± 0.66%. The inhibition efficiency ([3]; 20 µM inhibitor) was 65.13±0.81%, the FRET efficiency ([3]; 20 µM inhibitor) was 18.66 ± 0.06% and the “rank of inhibition efficiency among the three LFA-1 derived peptides” value [3] was “highest inhibition efficiency”.
